US9464075B2 (priority 2008, dated 2016)

Key:
A/M2-L26F = A/M2-L26F (Influenza A virus, UniProt P0DOF5, L26F); type: cell-based, Influenza virus A/Udorn/72
A/M2-V27A [1] = target: T1, A/M2-V27A (Influenza A virus, UniProt P0DOF5, V27A); type: cell-based, Influenza virus A/Udorn/72
A/M2-V27G = A/M2-V27G (Influenza A virus, UniProt P0DOF5, V27G); type: cell-based, Influenza virus A/Udorn/72
A/M2-A30T = A/M2-A30T (Influenza A virus, UniProt P0DOF5, A30T); type: cell-based, Influenza virus A/Udorn/72
A/M2-S31N = A/M2-S31N (Influenza A virus, UniProt P0DOF5, S31N); type: cell-based, Influenza virus A/Udorn/72
A/M2-G34E = A/M2-G34E (Influenza A virus, UniProt P0DOF5, G34E); type: cell-based, Influenza virus A/Udorn/72
[2] = tested on: influenza virus, containing the A/M2-V27A mutation; type: cell-based
A/M2-V27A [3] = target: T1, A/M2-V27A; type: cell-based

Row | Compound | % remaining activity after application of 100 μM compound (A/M2-L26F) | % remaining activity after application of 100 μM compound (A/M2-V27A [1]) | % remaining activity after application of 100 μM compound (A/M2-V27G) | % remaining activity after application of 100 μM compound (A/M2-A30T) | % remaining activity after application of 100 μM compound (A/M2-S31N) | % remaining activity after application of 100 μM compound (A/M2-G34E) | inhibition of plaque formation (in words) [2] | inhibition of the mutant (in words) (A/M2-S31N) | concentration at which plaque formation was reduced [2] | AM2 V27A % inhibition at 100 μM (A/M2-V27A [3])
1 | NC12CC3CC(CC(C3)C1)C2 [Amantadine, reference compound] | 51.8 ± 3.5% | 93.07 ± 1.9% | 95 ± 4.9% | 104.6 ± 4.3% | 65.3 ± 2.7% | 100.4 ± 6.7% | failed to inhibit plaque formation |  |  | 
2 | C1CCC2(CC1)CCN(C1=NCCN1)CC2 [BL-1743, 3-(4,5-Dihydro-1H-imidazol-2-yl)-3-aza-spiro[5.5]undecane, reference compound] | 89.2 ± 4.8% | 97.4 ± 1.8% | 82.9 ± 9.3% | 102 ± 2.3% | 100 ± 0.67% | 89.8 ± 6.9% | failed to inhibit plaque formation |  |  | 
3 | Cl.NC1CCC2(CCCCC2)CC1 [Compound 8] | 32.4 ± 3.3% | 46.6 ± 6.6% | 87.9 ± 6.1% | 98.1 ± 7.0% | 99.1 ± 0.9% | 96. ± 5.9% |  | little inhibition | 5 µM | 
4 | CNC1CCC2(CCCCC2)CC1.Cl [Compound 9] | 72.6 ± 8.4% | 70.2 ± 1.55% | 89.6 ± 4.1% | 101. ± 3.2% | 100 ± 4.1% | 101.7 ± 2.8% |  |  |  | 
5 | Cl.NNC1CCC2(CCCCC2)CC1 [Compound 31, N′-Spiro[5.5]undec-3-yl-hydrazinium chloride] |  |  |  |  |  |  |  |  |  | 31 (7.1%)
6 | Cl.NC1CSC2(CCCCC2)SC1 [Compound 33, 1,5-Dithia-spiro[5.5]undec-3-yl-ammonium chloride] |  |  |  |  |  |  |  |  |  | 33 (0%) 34 (46.9%)
7 | NC1CSC2(CCCCCC2)SC1 [Compound 34, 1,5-Dithia-spiro[5.6]dodec-3-yl-ammonium chloride] |  |  |  |  |  |  |  |  |  | 33 (0%) 34 (46.9%)
8 | N=C(N)NC1CCC2(CCCCC2)CC1 [Compound 35] |  |  |  |  |  |  |  |  |  | 35 (14.6%)
